Entries after “also recorded” stand apart in the source; their conditions may differ.
Columns and labels:
[1] = tested on: H9 cells; assay: Survival/viability of HIV-infected H9 cells (trypan blue exclusion), % control; settings: for viability at 0.01 µg/mL / viability at 0.1 µg/mL / viability at 1 µg/mL / viability at 10 µg/mL / viability at 5 µg/mL: Homo sapiens, H9, 96 h, read-out: Cell Survival (% Control); for viability of cells in the presence of HIV (in words): in vitro
[2] = tested on: HIV virus; settings: for inhibition of viral replication (in words): about 1 μg/ml; for activity against HIV / inhibition of viral replication (in words): in vitro
[3] = Solubility; format: physicochemical; settings: Tables I-III
[4] = tested on: target cells; assay: Toxicity to the cells; format: cell-based

| Compound | viability at 0.01 µg/mL [1] [%] | viability at 0.1 µg/mL [1] [%] | viability at 1 µg/mL [1] [%] | viability at 10 µg/mL [1] [%] | inhibition of viral replication (in words) [2] | activity against HIV / inhibition of viral replication (in words) [2] | viability at 5 µg/mL [1] [%] | viability of cells in the presence of HIV (in words) [1] | Solubility [3] | effect against HIV infection at noncytotoxic doses (in words) [2] | toxicity to the cells (in words) [4] | Cell Survival (% Control) ([1]; Table IV, conc. not printed (line between 10 and 0.1), added with HIV, 4 days) |
| --- | --- | --- | --- | --- | --- | --- | --- | --- | --- | --- | --- | --- |
| C[C@@H]1[C@H](O)[C@@H](C)/C=C/C=C/C=C/C=C/C=C/C=C/C=C/[C@H](O[C@@H]2O[C@H](C)[C@@H](O)[C@H](N)[C@@H]2O)C[C@@H]2O[C@](O)(C[C@@H](O)C[C@@H](O)[C@H](O)CC[C@@H](O)C[C@@H](O)CC(=O)O[C@H]1C)C[C@H](O)[C@H]2C(=O)O [Amphotericin B, reference compound] | 13 | 11 | 33 | 73 |  |  |  |  |  |  |  |  |
| CC(C)C1OC(=O)/C=C/C=C/C=C/C=C/C=C/C=C/CC(O)C(C)C(O)CC(O)CC(O)CC(O)CC(O)CC(O)CC(O)CC(O)/C=C/C1C (stereo not drawn) [Dermostatin A] | 0 | 18 | 92 |  | high levels of inhibition to viral replication have been achieved | inhibit the ability of the HIV virus to replicate within the lymphocyte after penetration by the virus | 99 | improve the viability of lymphocyte cells in the presence of HIV; also recorded: protective effect | Soluble in MeOH, DMSO, DMF; also recorded: Insoluble in H2 O, pet ether, hexane |  |  |  |
| Candicidin |  |  |  |  |  |  |  |  |  | no advantage whatsoever is seen | toxic to the cells; also recorded: its own cytotoxic effects takes its toll on the target cells |  |
| CCC(C)C1OC(=O)/C=C/C=C/C=C/C=C/C=C/C=C/CC(O)C(C)C(O)CC(O)CC(O)CC(O)CC(O)CC(O)CC(O)CC(O)/C=C/C1C (stereo not drawn) [Dermostatin B] | 0 | 0 | 87 |  | high levels of inhibition to viral replication have been achieved | inhibit the ability of the HIV virus to replicate within the lymphocyte after penetration by the virus | 97 | improve the viability of lymphocyte cells in the presence of HIV; also recorded: protective effect | Soluble in MeOH, DMSO, DMF; also recorded: Insoluble in H2 O, pet ether, hexane |  |  |  |
| CCCCC[C@@H](O)[C@H]1C(=O)O[C@H](C)[C@@H](O)/C=C/C=C/C=C/C=C/C=C(\C)[C@@H](O)C[C@H](O)C[C@H](O)C[C@H](O)C[C@H](O)C[C@H](O)C[C@@H]1O [Filipin, reference compound] |  | 48 | 51 | 49 |  | not active against HIV |  |  |  |  |  |  |
| C[C@@H]1[C@H](O)[C@@H](C)/C=C/C=C/CC/C=C/C=C/C=C/C=C/[C@H](O[C@@H]2O[C@H](C)[C@@H](O)[C@H](N)[C@@H]2O)C[C@@H]2O[C@](O)(C[C@@H](O)C[C@@H](O)[C@H](O)CC[C@@H](O)C[C@@H](O)CC(=O)O[C@H]1C)C[C@H](O)[C@H]2C(=O)O [Amphotericin A, reference compound] |  |  |  |  |  |  |  |  |  |  |  | 75 |

Source: patent publication US5159002A, “Method for purifying dermostatin A and dermostatin B” (Xechem Inc., priority 1990, dated 1992)
